{
  "source": "patent US6812212B2",
  "about": "“Assessment of oxidant stress in vitro and in vivo” (priority 2000, dated 2004)",
  "key": {"[1]": {"system": "cytochrome c", "test": "Nitration and polymerization of cytochrome c by NO donor during prostaglandin H2 synthase form 2 metabolism of arachidonic acid", "assay_type": "biochemical", "conditions": "300 μM DETA NONOate with ovine PGHS-2 and arachidonic acid (590 μM), 37° C., 30 minutes", "procedure": "Western blot analysis was carried out with monoclonal antibodies produced against nitrotyrosine using the alkaline phosphatase system;\nReaction mixture in 100 mM phosphate buffer, pH 7.4, (total volume, 200 μl) was incubated at 37° C. for 30 minutes. The reaction mixture contained a combination of cytochrome c (40 μg), ovine prostaglandin H2 synthase form 2 (104 units), arachidonic acid (590 μM), epinephrine (31 μg), hematin (1 μM), and DETA NONOate, an NO donor, (300 μM) as indicated in FIG. 2. After incubation, the proteins were separated by SDS-PAGE followed by Western blot analysis with an alkaline phosphatase system using monoclonal antibodies produced against nitrotyrosine."}, "[2]": {"molecular_target": "T1, prostaglandin H2 synthase form 2 (Ovis aries, UniProt P79208)", "T1 construct": "Prostaglandin H2 synthase form 2, isolated from sheep placenta, contained nitrated tyrosine residues; purchased Cayman Co. (Ann Arbor, Mich.); host or cells: sheep placenta (tissue-purified)", "T1 sequence (P79208 17-603)": "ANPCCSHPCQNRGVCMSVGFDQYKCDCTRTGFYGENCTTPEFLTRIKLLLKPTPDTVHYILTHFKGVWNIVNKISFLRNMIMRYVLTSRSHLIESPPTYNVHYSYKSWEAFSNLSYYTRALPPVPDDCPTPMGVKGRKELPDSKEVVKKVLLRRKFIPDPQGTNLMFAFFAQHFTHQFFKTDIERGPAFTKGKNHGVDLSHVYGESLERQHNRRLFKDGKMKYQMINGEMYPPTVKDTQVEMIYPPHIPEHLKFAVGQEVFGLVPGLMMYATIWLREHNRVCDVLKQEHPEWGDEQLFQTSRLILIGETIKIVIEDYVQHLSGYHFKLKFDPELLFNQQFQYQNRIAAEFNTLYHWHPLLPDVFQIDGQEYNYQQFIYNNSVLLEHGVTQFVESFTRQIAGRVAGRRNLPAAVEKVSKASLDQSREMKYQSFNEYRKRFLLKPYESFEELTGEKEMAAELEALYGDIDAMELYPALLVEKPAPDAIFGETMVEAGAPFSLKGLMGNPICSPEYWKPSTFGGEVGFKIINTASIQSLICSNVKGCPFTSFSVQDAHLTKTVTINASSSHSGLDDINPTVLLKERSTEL", "test": "Peroxynitrite-induced nitration of prostaglandin H2 synthase form 2, Western blot with anti-nitrotyrosine antibodies", "assay_type": "biochemical, sheep", "conditions": "for nitration of tyrosine residues of prostaglandin H2 synthase form 2 in the presence of reducing agent: 16 μg sheep PGHS-2, 450 μM peroxynitrite, 31 μM GSH", "procedure": "(§1) SDS-PAGE was carried out on 10% or 15% gels, according to Laemmli (18), with or without the addition of β-mercaptoethanol in gel loading buffer before heat denaturization of proteins. The separated proteins were electroblotted onto a […] membrane and Western blot analyses were carried out using alkaline phosphatase system as previously described (19,20). Visualization of bands was accomplished by incubation with a mixture of 5-bromo-4-chloro-3-indolylphosphatate p-toluidine and nitrobluetetrazolium. Western blot analyses were also carried out using horseradish peroxidase or alkaline phosphatase system with […] substrates."}, "[3]": {"molecular_target": "T1, prostaglandin H2 synthase form 2", "test": "Peroxynitrite-induced dimerization of prostaglandin H2 synthase form 2, SDS-PAGE without β-mercaptoethanol and Western blot", "assay_type": "biochemical, sheep", "conditions": "450 μM peroxynitrite", "procedure": "as §1"}, "[4]": {"molecular_target": "T1, prostaglandin H2 synthase form 2", "test": "Prostaglandin H2 synthase activity analysis by TLC ([14C]arachidonic acid conversion)", "assay_type": "biochemical, sheep", "conditions": "pretreated at 37° C. for 30 minutes; 25 μM [14C]arachidonic acid", "procedure": "(§2) Prostaglandin H2 synthase activity analysis of sheep prostaglandin H2 synthases form 1 and 2 obtained from ram seminal vesicle and placenta, respectively, were carried out as previously described (21) with or without pretreatment with peroxynitrite. Briefly, purified or partly purified sheep prostaglandin H2 synthases form 1 (9 units) and form 2 (12 units) were pretreated with or without peroxynitrite at 37° C. for 30 minutes. [^14C]arachidonic acid (AA) (25 μM) (NEN, specific activity 53 mCi/mmol) was added to the prostaglandin H2 synthase form 1 or form 2 in 0.2 ml of PBS, and incubated at 37° C. for 10 minutes. Prostaglandin H2 synthase metabolites in the medium were extracted with ethyl acetate, dried down in a centrifugal evaporator, spotted on a silica TLC plate and separated using A-9 solvent (ethyl acetate:trimethylpentane:acetic acid:water, 55:25:10:50). The TLC assay measured products resulting from both the cyclooxygenase and peroxidase activities of prostaglandin H2 synthase. The immediate product of the prostaglandin H2 synthase reaction, prostaglandin H2, was unstable and broke down in a non-enzymatic fashion to a variety of prostaglandins which were detectable by TLC. The Rf pattern in the A-9 solvent system of the break down products of prostaglandin H2 produced by ram seminal vesicle prostaglandin H2 synthase form 1 was well characterized. […]"}, "[5]": {"molecular_target": "T2, prostaglandin H2 synthase form 1 (Ovis aries, UniProt P05979)", "T2 construct": "sheep prostaglandin H2 synthases form 1 and 2 obtained from ram seminal vesicle and placenta, respectively; purchased Cayman Co. (Ann Arbor, Mich.); host or cells: ram seminal vesicle (tissue-purified)", "T2 sequence (P05979 25-600)": "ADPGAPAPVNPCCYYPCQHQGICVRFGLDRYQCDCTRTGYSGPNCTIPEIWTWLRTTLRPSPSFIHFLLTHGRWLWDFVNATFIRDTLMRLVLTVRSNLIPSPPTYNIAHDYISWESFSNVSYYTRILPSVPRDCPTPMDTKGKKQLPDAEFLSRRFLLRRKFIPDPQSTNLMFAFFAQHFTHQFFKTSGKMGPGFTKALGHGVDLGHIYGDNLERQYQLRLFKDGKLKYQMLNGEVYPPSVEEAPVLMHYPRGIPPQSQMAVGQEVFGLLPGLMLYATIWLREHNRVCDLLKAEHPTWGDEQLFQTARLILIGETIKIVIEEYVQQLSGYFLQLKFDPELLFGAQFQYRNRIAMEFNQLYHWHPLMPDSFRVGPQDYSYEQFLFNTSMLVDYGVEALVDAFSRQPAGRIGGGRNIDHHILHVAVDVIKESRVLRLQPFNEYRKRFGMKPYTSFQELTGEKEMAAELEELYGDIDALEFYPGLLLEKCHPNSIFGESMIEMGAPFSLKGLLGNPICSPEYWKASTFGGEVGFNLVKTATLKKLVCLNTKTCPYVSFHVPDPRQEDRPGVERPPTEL", "test": "Prostaglandin H2 synthase activity analysis by TLC ([14C]arachidonic acid conversion)", "assay_type": "biochemical, sheep", "conditions": "pretreated at 37° C. for 30 minutes; 25 μM [14C]arachidonic acid", "procedure": "as §2"}, "[6]": {"system": "cytochrome c", "test": "Nitration and polymerization of cytochrome c, SDS-PAGE and anti-nitrotyrosine Western blot", "assay_type": "biochemical", "procedure": "as §1\nCytochrome c (40 μg) was incubated with 0.5 mM (FIG. 1, Panel A, lane 1) […] deactivated (a negative control, FIG. 1, Panel A, lane 2) peroxynitrite in 100 mM phosphate buffer, pH 7.4. Deactivated peroxynitrite was produced by incubation of 0.5 mM peroxynitrite in buffer for 5 minutes prior to addition to the reaction mixture. […]\nCytochrome c (40 μg) was incubated with increasing concentrations (0.032 to 0.13 mM) (FIG. 1, Panel B) of peroxynitrite in 100 mM phosphate buffer, pH 7.4. […] The cytochrome c monomer band (14 kDa) shown in Western blot analysis in FIG. 1, Panel B and those obtained from two other experiments were quantitated using Molecular Dynamics Personal Densitometer (FIG. 1, Panel C)."}},
  "data": [
    {"compound": "NCCN(CCN)/[N+]([O-])=N/O", "note": "[DETA NONOate, diethylenetetraamine (DETA) NONOate]", "values": [
      {"measurement": "nitration and polymerization of cytochrome c", "setting": "[1]", "value": "nitrated and polymerized"}
    ]},
    {"compound": "N[C@@H](CCC(=O)N[C@@H](CS)C(=O)NCC(=O)O)C(=O)O", "note": "[glutathione]", "values": [
      {"measurement": "nitration of tyrosine residues of prostaglandin H2 synthase form 2 in the presence of reducing agent", "setting": "[2]", "value": "inhibited"},
      {"measurement": "nitration of tyrosine residues of prostaglandin H2 synthase form 2 in the presence of reducing agent", "setting": "[2]; listed as GSH", "value": "not nitrated"},
      {"measurement": "dimerization of prostaglandin H2 synthase form 2 in the presence of reducing agent", "setting": "[3]; 31 μM GSH, no β-mercaptoethanol in loading buffer", "value": "ran as a monomer"}
    ]},
    {"compound": "O=NOO", "note": "[peroxynitrite]", "values": [
      {"measurement": "catalytic activity of prostaglandin H2 synthase form 2 after treatment", "setting": "[4]", "value": "abolished"},
      {"measurement": "catalytic activity of prostaglandin H2 synthase form 1 after treatment", "setting": "[5]", "value": "abolished"},
      {"measurement": "nitration of tyrosine residues of prostaglandin H2 synthase form 2 by oxidant", "setting": "[2]; 450 μM peroxynitrite, no GSH", "value": "increased"},
      {"measurement": "dimerization of prostaglandin H2 synthase form 2 by oxidant", "setting": "[3]; no GSH, no β-mercaptoethanol", "value": "migrated both as a monomer (70 kDa) and a dimer (140 kDa)"},
      {"measurement": "nitration and polymerization of cytochrome c", "setting": "[6]; 0.5 mM peroxynitrite, 100 mM phosphate buffer, pH 7.4", "value": "nitrated and polymerized to 30 kDa, 45 kDa and higher molecular mass"},
      {"measurement": "concentration dependence of nitration and polymerization of cytochrome c", "setting": "[6]; 0.032 to 0.13 mM peroxynitrite", "value": "nitrated and polymerized in a dose-dependent manner"}
    ]}
  ]
}
